Results from ChEMBL document CHEMBL1201862, “PubChem BioAssay data set” (2004).
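Exposure lasted 48 hours, with cells grown in 96-well plates and compounds tested at five concentrations. The concentration for 50% growth inhibition is given as GI50.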 The source made the active and inactive calls. Cut-off read from the data, not from the text of the source: active = GI50 up to about 1.1 µM and inactive = higher.

Columns and labels:
Experiment in all cases: NCI anticancer screen, dose series, 48 h
NCI-H460 = tested on: NCI-H460
K562 = tested on: K562
OVCAR-4 = tested on: OVCAR-4
RXF 393 = tested on: RXF 393
HOP-62 = tested on: HOP-62
MDA-MB-231 = tested on: MDA-MB-231
HOP-92 = tested on: HOP-92
OVCAR-5 = tested on: OVCAR-5
Malme-3M = tested on: Malme-3M
NCI-H226 = tested on: NCI-H226
HCC 2998 = tested on: HCC 2998
PC-3 = tested on: PC-3
CAKI-1 = tested on: CAKI-1
Hs-578T = tested on: Hs-578T
U-251 = tested on: U-251
A498 = tested on: A498
KM12 = tested on: KM12
ACHN = tested on: ACHN
BT-549 = tested on: BT-549
UACC-62 = tested on: UACC-62
SF-268 = tested on: SF-268
MDA-N = tested on: MDA-N
MCF7 = tested on: MCF7
SW-620 = tested on: SW-620
SK-MEL-28 = tested on: SK-MEL-28
NCI-H522 = tested on: NCI-H522
OVCAR-3 = tested on: OVCAR-3
SNB-19 = tested on: SNB-19
A549 = tested on: A549
HCT-116 = tested on: HCT-116
SK-MEL-5 = tested on: SK-MEL-5
IGROV-1 = tested on: IGROV-1
SNB-75 = tested on: SNB-75
NCI/ADR-RES = tested on: NCI/ADR-RES
786-0 = tested on: 786-0
HL-60 = tested on: HL-60
LOX IMVI = tested on: LOX IMVI
M14 = tested on: M14
SN12C = tested on: SN12C
HT-29 = tested on: HT-29
T47D = tested on: T47D
SF-539 = tested on: SF-539
SR = tested on: SR
SK-OV-3 = tested on: SK-OV-3
SF-295 = tested on: SF-295
COLO 205 = tested on: COLO 205
UO-31 = tested on: UO-31
NCI-H23 = tested on: NCI-H23
MOLT-4 = tested on: MOLT-4
UACC-257 = tested on: UACC-257
TK-10 = tested on: TK-10
SK-MEL-2 = tested on: SK-MEL-2
OVCAR-8 = tested on: OVCAR-8
EKVX = tested on: EKVX
MDA-MB-435 = tested on: MDA-MB-435
RPMI-8226 = tested on: RPMI-8226
HCT-15 = tested on: HCT-15
CCRF-CEM = tested on: CCRF-CEM
DU-145 = tested on: DU-145
KM-20L2 = tested on: KM-20L2

Measured: GI50

Nc1nn2c(nc(N)c3c(N)n[nH]c32)c1/N=N\c1ccc(Br)cc1
active: MDA-MB-231 524 nM
inactive: NCI-H460 > 100000 nM | K562 2160 nM | OVCAR-4 16400 nM | RXF 393 > 100000 nM | HOP-62 42900 nM | HOP-92 3710 nM | OVCAR-5 23700 nM | Malme-3M 4420 nM | NCI-H226 55000 nM | HCC 2998 > 100000 nM | PC-3 > 100000 nM | CAKI-1 > 100000 nM | Hs-578T 3320 nM | U-251 6010 nM | A498 > 100000 nM | KM12 13100 nM | ACHN 69300 nM | BT-549 2920 nM | UACC-62 > 100000 nM | SF-268 7660 nM | MDA-N 3650 nM | MCF7 > 100000 nM | SW-620 43700 nM | SK-MEL-28 7730 nM | NCI-H522 27500 nM | OVCAR-3 32600 nM | SNB-19 29900 nM | A549 > 100000 nM | HCT-116 53800 nM | SK-MEL-5 > 100000 nM | IGROV-1 81800 nM | SNB-75 18100 nM | NCI/ADR-RES > 100000 nM | 786-0 40900 nM | HL-60 8150 nM | LOX IMVI 2880 nM | M14 5860 nM | SN12C 7760 nM | HT-29 55800 nM | T47D 1760 nM | SF-539 15100 nM | SR 2720 nM | SK-OV-3 > 100000 nM | SF-295 > 100000 nM | COLO 205 > 63200 nM | UO-31 > 100000 nM | NCI-H23 > 5610 nM | MOLT-4 3530 nM | UACC-257 26700 nM | TK-10 66800 nM | SK-MEL-2 12300 nM | OVCAR-8 21000 nM | EKVX > 100000 nM | MDA-MB-435 3130 nM | RPMI-8226 > 100000 nM | CCRF-CEM 2100 nM | DU-145 > 100000 nM
> 91800 nM: HCT-15

COc1ccc2nc3cc(Cl)ccc3c(NCCCN(C)CCCNc3ccc4ncn5c6ccccc6c(=O)c3c45)c2c1
47.6 nM: HCT-15
inactive: HOP-92 3260 nM | OVCAR-5 3090 nM | Malme-3M 2690 nM | Hs-578T 3990 nM | A498 4220 nM | UACC-62 1920 nM | SK-MEL-28 2610 nM | OVCAR-3 1570 nM | SNB-75 2380 nM | NCI/ADR-RES 1260 nM | T47D 4150 nM | SK-OV-3 2720 nM | NCI-H23 1180 nM | SK-MEL-2 3300 nM
active: NCI-H460 15.7 nM | K562 3.83 nM | OVCAR-4 89.7 nM | RXF 393 53.6 nM | HOP-62 817 nM | MDA-MB-231 108 nM | NCI-H226 395 nM | HCC 2998 10.3 nM | PC-3 547 nM | CAKI-1 184 nM | U-251 47.8 nM | KM12 123 nM | ACHN 10.2 nM | BT-549 82.2 nM | SF-268 246 nM | MDA-N 81.7 nM | MCF7 52.5 nM | SW-620 5.73 nM | NCI-H522 26.4 nM | SNB-19 269 nM | A549 32.1 nM | HCT-116 2.5 nM | SK-MEL-5 366 nM | IGROV-1 37.4 nM | 786-0 33.3 nM | HL-60 22.6 nM | LOX IMVI 116 nM | M14 558 nM | SN12C 30.2 nM | HT-29 2.5 nM | SF-539 86.1 nM | SR 19 nM | SF-295 169 nM | COLO 205 39.1 nM | UO-31 488 nM | MOLT-4 2.64 nM | UACC-257 973 nM | TK-10 148 nM | OVCAR-8 163 nM | EKVX 637 nM | MDA-MB-435 183 nM | RPMI-8226 65.6 nM | CCRF-CEM 228 nM | DU-145 587 nM

O=C1C=C[C@@]23C[C@@H](NC4=C2C2=NCCc5c[nH]c(c52)C4=O)SC3=C1 [1-DEBROMODISCORHABDIN B]
inactive: Malme-3M 1250 nM | NCI-H226 14600 nM | CAKI-1 17700 nM | KM12 6430 nM | MDA-N 1730 nM | NCI-H522 1690 nM | SNB-19 16300 nM | HCT-116 1750 nM | HL-60 1670 nM | HT-29 2220 nM | SK-OV-3 18700 nM | COLO 205 1550 nM | UO-31 9350 nM | MOLT-4 1990 nM | TK-10 14600 nM | MDA-MB-435 1630 nM | CCRF-CEM 2860 nM | KM-20L2 3010 nM
